Reference: the NIST ThermoML archive (doi:10.1021/je101173w)
Numbers after ± are expanded uncertainties.

Experiments:
[1] = mn = molality of the nth substance listed, in mol/kg; settings: 101 kPa, Liquid; for viscosity: Capillary tube (Ostwald / Ubbelohde) method; for mass density: Vibrating tube method
[2] = 101.33 kPa, Liquid; for viscosity: Capillary tube (Ostwald / Ubbelohde) method; for mass density: Vibrating tube method

Oc1cccc(O)c1 [1,3-benzenediol] + CCO
viscosity ([1]; 293.15 K, m1 = 1.634): 2.136 ± 0.013 mPa·s
viscosity ([1]; 293.15 K, m1 = 3.537): 3.742 ± 0.022 mPa·s
viscosity ([1]; 293.15 K, m1 = 5.77): 6.373 ± 0.035 mPa·s
viscosity ([1]; 293.15 K, m1 = 8.441): 11.33 ± 0.059 mPa·s
viscosity ([1]; 293.15 K, m1 = 11.69): 21.33 ± 0.1 mPa·s
mass density ([1]; 293.15 K, m1 = 1.634): 847.02 ± 0.14 kg/m3
mass density ([1]; 293.15 K, m1 = 3.537): 897.16 ± 0.13 kg/m3
mass density ([1]; 293.15 K, m1 = 5.77): 941.64 ± 0.12 kg/m3
mass density ([1]; 293.15 K, m1 = 8.441): 981.15 ± 0.12 kg/m3
mass density ([1]; 293.15 K, m1 = 11.69): 1017.03 ± 0.12 kg/m3
viscosity ([1]; 303.15 K, m1 = 1.634): 1.707 ± 0.01 mPa·s
viscosity ([1]; 303.15 K, m1 = 3.537): 3.078 ± 0.018 mPa·s
viscosity ([1]; 303.15 K, m1 = 5.77): 4.872 ± 0.028 mPa·s
viscosity ([1]; 303.15 K, m1 = 8.441): 8.487 ± 0.046 mPa·s
viscosity ([1]; 303.15 K, m1 = 11.69): 15.56 ± 0.078 mPa·s
mass density ([1]; 303.15 K, m1 = 1.634): 838.53 ± 0.14 kg/m3
mass density ([1]; 303.15 K, m1 = 3.537): 889.03 ± 0.13 kg/m3
mass density ([1]; 303.15 K, m1 = 5.77): 933.72 ± 0.12 kg/m3
mass density ([1]; 303.15 K, m1 = 8.441): 973.42 ± 0.12 kg/m3
mass density ([1]; 303.15 K, m1 = 11.69): 1007.47 ± 0.12 kg/m3
viscosity ([1]; 313.15 K, m1 = 1.634): 1.421 ± 0.0087 mPa·s
viscosity ([1]; 313.15 K, m1 = 3.537): 2.294 ± 0.014 mPa·s
viscosity ([1]; 313.15 K, m1 = 5.77): 3.648 ± 0.022 mPa·s
viscosity ([1]; 313.15 K, m1 = 8.441): 5.94 ± 0.034 mPa·s
viscosity ([1]; 313.15 K, m1 = 11.69): 9.505 ± 0.051 mPa·s
mass density ([1]; 313.15 K, m1 = 1.634): 830.12 ± 0.15 kg/m3
mass density ([1]; 313.15 K, m1 = 3.537): 880.71 ± 0.13 kg/m3
mass density ([1]; 313.15 K, m1 = 5.77): 925.87 ± 0.13 kg/m3
mass density ([1]; 313.15 K, m1 = 8.441): 965.64 ± 0.12 kg/m3
mass density ([1]; 313.15 K, m1 = 11.69): 1002.06 ± 0.11 kg/m3
viscosity ([1]; 323.15 K, m1 = 1.634): 1.265 ± 0.0079 mPa·s
viscosity ([1]; 323.15 K, m1 = 3.537): 1.947 ± 0.012 mPa·s
viscosity ([1]; 323.15 K, m1 = 5.77): 2.864 ± 0.017 mPa·s
viscosity ([1]; 323.15 K, m1 = 8.441): 4.295 ± 0.025 mPa·s
viscosity ([1]; 323.15 K, m1 = 11.69): 6.578 ± 0.036 mPa·s
mass density ([1]; 323.15 K, m1 = 1.634): 821.65 ± 0.15 kg/m3
mass density ([1]; 323.15 K, m1 = 3.537): 872.63 ± 0.14 kg/m3
mass density ([1]; 323.15 K, m1 = 5.77): 918.18 ± 0.13 kg/m3
mass density ([1]; 323.15 K, m1 = 8.441): 957.95 ± 0.12 kg/m3
mass density ([1]; 323.15 K, m1 = 11.69): 994.49 ± 0.11 kg/m3

Oc1cccc(O)c1 [1,3-benzenediol] + O
viscosity ([1]; 293.15 K, m1 = 2.361): 1.615 ± 0.0096 mPa·s
viscosity ([1]; 293.15 K, m1 = 4.819): 2.481 ± 0.014 mPa·s
viscosity ([1]; 293.15 K, m1 = 7.567): 3.681 ± 0.021 mPa·s
viscosity ([1]; 293.15 K, m1 = 10.59): 5.347 ± 0.03 mPa·s
viscosity ([1]; 293.15 K, m1 = 13.9): 7.61 ± 0.04 mPa·s
mass density ([1]; 293.15 K, m1 = 2.361): 1041.62 ± 0.11 kg/m3
mass density ([1]; 293.15 K, m1 = 4.819): 1073.42 ± 0.12 kg/m3
mass density ([1]; 293.15 K, m1 = 7.567): 1099.32 ± 0.13 kg/m3
mass density ([1]; 293.15 K, m1 = 10.59): 1120.13 ± 0.13 kg/m3
mass density ([1]; 293.15 K, m1 = 13.9): 1137.42 ± 0.14 kg/m3
viscosity ([1]; 303.15 K, m1 = 2.361): 1.25 ± 0.0076 mPa·s
viscosity ([1]; 303.15 K, m1 = 4.819): 1.874 ± 0.011 mPa·s
viscosity ([1]; 303.15 K, m1 = 7.567): 2.72 ± 0.016 mPa·s
viscosity ([1]; 303.15 K, m1 = 10.59): 3.844 ± 0.022 mPa·s
viscosity ([1]; 303.15 K, m1 = 13.9): 5.36 ± 0.03 mPa·s
mass density ([1]; 303.15 K, m1 = 2.361): 1037.63 ± 0.11 kg/m3
mass density ([1]; 303.15 K, m1 = 4.819): 1068.64 ± 0.12 kg/m3
mass density ([1]; 303.15 K, m1 = 7.567): 1093.72 ± 0.13 kg/m3
mass density ([1]; 303.15 K, m1 = 10.59): 1113.97 ± 0.13 kg/m3
mass density ([1]; 303.15 K, m1 = 13.9): 1130.96 ± 0.14 kg/m3
viscosity ([1]; 313.15 K, m1 = 2.361): 1.012 ± 0.0063 mPa·s
viscosity ([1]; 313.15 K, m1 = 4.819): 1.474 ± 0.0089 mPa·s
viscosity ([1]; 313.15 K, m1 = 7.567): 2.089 ± 0.012 mPa·s
viscosity ([1]; 313.15 K, m1 = 10.59): 2.867 ± 0.017 mPa·s
viscosity ([1]; 313.15 K, m1 = 13.9): 3.9 ± 0.023 mPa·s
mass density ([1]; 313.15 K, m1 = 2.361): 1032.94 ± 0.11 kg/m3
mass density ([1]; 313.15 K, m1 = 4.819): 1062.96 ± 0.12 kg/m3
mass density ([1]; 313.15 K, m1 = 7.567): 1087.57 ± 0.12 kg/m3
mass density ([1]; 313.15 K, m1 = 10.59): 1107.55 ± 0.13 kg/m3
mass density ([1]; 313.15 K, m1 = 13.9): 1124.23 ± 0.14 kg/m3
viscosity ([1]; 323.15 K, m1 = 2.361): 0.8329 ± 0.0053 mPa·s
viscosity ([1]; 323.15 K, m1 = 4.819): 1.181 ± 0.0073 mPa·s
viscosity ([1]; 323.15 K, m1 = 7.567): 1.629 ± 0.0098 mPa·s
viscosity ([1]; 323.15 K, m1 = 10.59): 2.193 ± 0.013 mPa·s
viscosity ([1]; 323.15 K, m1 = 13.9): 2.909 ± 0.017 mPa·s
mass density ([1]; 323.15 K, m1 = 2.361): 1027.74 ± 0.11 kg/m3
mass density ([1]; 323.15 K, m1 = 4.819): 1057.26 ± 0.12 kg/m3
mass density ([1]; 323.15 K, m1 = 7.567): 1081.27 ± 0.12 kg/m3
mass density ([1]; 323.15 K, m1 = 10.59): 1100.86 ± 0.13 kg/m3
mass density ([1]; 323.15 K, m1 = 13.9): 1117.62 ± 0.13 kg/m3
viscosity ([1]; 333.15 K, m1 = 2.361): 0.6974 ± 0.0046 mPa·s
viscosity ([1]; 333.15 K, m1 = 4.819): 0.9741 ± 0.0061 mPa·s
viscosity ([1]; 333.15 K, m1 = 7.567): 1.311 ± 0.0081 mPa·s
viscosity ([1]; 333.15 K, m1 = 10.59): 1.727 ± 0.01 mPa·s
viscosity ([1]; 333.15 K, m1 = 13.9): 2.247 ± 0.013 mPa·s
mass density ([1]; 333.15 K, m1 = 2.361): 1021.98 ± 0.11 kg/m3
mass density ([1]; 333.15 K, m1 = 4.819): 1050.76 ± 0.12 kg/m3
mass density ([1]; 333.15 K, m1 = 7.567): 1074.55 ± 0.12 kg/m3
mass density ([1]; 333.15 K, m1 = 10.59): 1094.26 ± 0.13 kg/m3
mass density ([1]; 333.15 K, m1 = 13.9): 1110.53 ± 0.13 kg/m3

CCO [ethanol]
viscosity ([2]; 293.15 K): 1.211 ± 0.0075 mPa·s
mass density ([2]; 293.15 K): 790.08 ± 0.15 kg/m3
viscosity ([2]; 303.15 K): 0.9977 ± 0.0063 mPa·s
mass density ([2]; 303.15 K): 781 ± 0.16 kg/m3
viscosity ([2]; 313.15 K): 0.8319 ± 0.0054 mPa·s
mass density ([2]; 313.15 K): 772.31 ± 0.16 kg/m3
viscosity ([2]; 323.15 K): 0.6876 ± 0.0046 mPa·s
mass density ([2]; 323.15 K): 763.35 ± 0.16 kg/m3
viscosity ([2]; 333.15 K): 0.5806 ± 0.004 mPa·s
mass density ([2]; 333.15 K): 754.2 ± 0.16 kg/m3
